Measured values as given in patent US9540691B2, “Assays and methods for selecting a treatment regimen for a subject with depression” (THE GENERAL HOSPITAL CORPORATION, priority 2011, dated 2017).
Read-outs that look alike come from different tables or passages of the source.

System: MDD patients carrying the indicated conditions
Conditions: with SSRI
Procedure: Folate levels are classified as either low (<=2.5 ng/ml) or normal; and homocysteine levels as either normal or elevated (>=[…]). The presence or absence of at least one […] allele for the MTHFR gene are entered as a dichotomous variable (present or absent). […] Using folate as an example predicator, the presence or absence of a low serum-folate level along with treatment assignment can be entered in a 2×2, factorial ANOVA, using depression improvement scores (baseline minus endpoint HAM-D-17 scores) as the dependant variable. […] Similar analyses (i.e. separate 2×2 ANOVA's) can be performed substituting the presence of low folate levels for the presence of other predictors as described herein. Similarly, the effect of other predictors can be indicated by the interaction term representing the potential modulating influence of those variables.
Particularly, specific genetic and biomarkers that were assessed include the following: • (a) BMI calculation of at least about 30 kg/m^2; • (b) an expression ratio of SAM/SAH smaller than 2.8 (e.g., 2.71) as measured in a plasma sample; • (c) a level of 4-HNE no less than 3.28 μg/mL (as measured in a plasma sample); • (d) presence of rare variants CT or TT at position 677 of SEQ ID NO: 1 corresponding to a portion of a genomic nucleic acid sequence of methylenetetrahydrofolate reductase (MTHFR) (abbreviated as “MTHFR 677” below); • (e) presence of rare variants AG or GG at position 2756 of SEQ ID NO: 2 corresponding to a portion of genomic nucleic acid sequence of methionine synthase (MTR) (abbreviated as “MTR 2756” below); and • (f) presence of rare variants AG or GG at position 66 of SEQ ID NO: 3 corresponding to a portion of genomic nucleic acid sequence of methionine synthase reductase (MTRR) (abbreviated as “MTRR 66” below).
The efficacy effect is determined by measuring the mean change in the HAMD-17 score and HAMD-28 score by the end of Phase I and Phase II, as compared to the baseline.

[1] = Phase II, interaction of BMI with the treatment
[2] = Phase II, interaction of HNE-his with the treatment
[3] = Phase II, interaction of SAM/SAH with the treatment
[4] = Pooled phases, 25 =< BMI < 30 kg/m^2 (18, 10)
[5] = Pooled phases, BMI < 25 (14, 7)

CN1c2c(nc(N)[nH]c2=O)NC[C@@H]1CNc1ccc(C(=O)N[C@@H](CCC(=O)O)C(=O)O)cc1 [6(S)-5-MTHF, 6(S)-5-methyltetrahydrofolate]
Effect, change in HAMD-28 score (Phase II, MTR 2756 AA and MTRR 66 AA): −8.000 | Effect, change in HAMD-17 score (Phase II, MTR 2756 AA and SAM/SAH >= median (24,12)): 1.971 | Effect, change in HAMD-28 score (Phase II, MTR 2756 AA and SAM/SAH >= median): 2.000 | Effect, change in HAMD-28 score (Phase II, MTR 2756 AA): −0.446 | Effect, change in HAMD-17 score (Phase II, MTR 2756 AG or GG and BMI >= 30 kg/m^2 (10,5)): −12.167 | Effect, change in HAMD-28 score (Phase II, MTR 2756 AG or GG and BMI >= 30 kg/m^2): −13.000 | Effect, change in HAMD-17 score (Phase II, MTR 2756 AG or GG and HNE-His >= median (13,7)): −8.417 | Effect, change in HAMD-28 score (Phase II, MTR 2756 AG or GG and HNE-His >= median = 3.28 (plasma sample)): −9.500 | Effect, change in HAMD-17 score (Phase II, MTR 2756 AG or GG and MTRR 66 AG or GG (15,7)): −4.667 | Effect, change in HAMD-17 score (Phase II, MTR 2756 AG or GG and MTRR 66 AG or GG and BMI >= 30 kg/m^2 (8,4)): −11.000 | Effect, change in HAMD-28 score (Phase II, MTR 2756 AG or GG and MTRR 66 AG or GG and BMI >= 30 kg/m^2): −12.000 | Effect, change in HAMD-17 score (Phase II, MTR 2756 AG or GG and MTRR 66 AG or GG and HNE-His >= median (10,4)): −11.000 | Effect, change in HAMD-28 score (Phase II, MTR 2756 AG or GG and MTRR 66 AG or GG and HNE-His >= median): −12.000 | Effect, change in HAMD-17 score (Phase II, MTR 2756 AG or GG and MTRR 66 AG or GG and SAM/SAH < median (8,3)): −6.500 | Effect, change in HAMD-28 score (Phase II, MTR 2756 AG or GG and MTRR 66 AG or GG and SAM/SAH < median = 2.71 (plasma sample)): −10.500 | Effect, change in HAMD-28 score (Phase II, MTR 2756 AG or GG and MTRR 66 AG or GG): −6.583 | Effect, change in HAMD-17 score (Phase II, MTR 2756 AG or GG and SAM/SAH < median (10,4)): −2.500 | Effect, change in HAMD-28 score (Phase II, MTR 2756 AG or GG and SAM/SAH < median = 2.71 (plasma sample)): −7.500 | Effect, change in HAMD-17 score (Phase II, MTR 2756 AG/GG (20,11)): −3.600 | Effect, change in HAMD-28 score (Phase II, MTR 2756 AG/GG): −5.300 | Effect, change in HAMD-17 score (Phase II, MTRR 66 AA and HNE-His < median (8,5)): −1.667 | Effect, change in HAMD-28 score (Phase II, MTRR 66 AA and HNE-His < median = 3.28 (plasma sample)): −2.000 | Effect, change in HAMD-17 score (Phase II, MTRR 66 AA and SAM/SAH >= median (9,6)): −3.000 | Effect, change in HAMD-28 score (Phase II, MTRR 66 AA and SAM/SAH >= median): −3.333 | Effect, change in HAMD-17 score (Phase II, MTRR 66 AG or GG and HNE-His >= median (24,11)): −3.500 | Effect, change in HAMD-28 score (Phase II, MTRR 66 AG or GG and HNE-His >= median): −4.071 | Effect, change in HAMD-17 score (Phase II, MTRR 66 AG or GG and SAM/SAH < median (24,10)): −6.190 | Effect, change in HAMD-28 score (Phase II, MTRR 66 AG or GG and SAM/SAH < median = 2.71 (plasma sample)): −7.381 | Effect, change in HAMD-17 score (Phase II, SAM/SAH < median and HNE-His >= median (19,7)): −9.000 | Effect, change in HAMD-28 score (Phase II, SAM/SAH < median and HNE-His >= median): −12.000 | Effect, change in HAMD-17 score (Phase II, SAM/SAH >= median and HNE-His < median (18,8)): 4.000 | Effect, change in HAMD-28 score (Phase II, SAM/SAH >= median and HNE-His < median): 4.500 | Effect, change in HAMD-17 score: BMI*treat [1]: 0.113 | Effect, change in HAMD-28 score: BMI*treat [1]: 0.082 | Effect, change in HAMD-17 score: HNE-his*treat [2]: 2.027 | Effect, change in HAMD-28 score: HNE-his*treat [2]: 2.362 | Effect, change in HAMD-17 score: SAM/SAH*treat [3]: 1.483 | Effect, change in HAMD-28 score: SAM/SAH*treat (last line) [3]: 1.806 | Effect, change in HAMD-17 score: baseHAMD-17*treat (Phase II, interaction of base HAMD-17 with the treatment): −0.249 | Effect, change in HAMD-28 score: SAM/SAH*treat (first line under HAMD28) (Phase II, interaction with the treatment): 1.483 | Effect, change in HAMD-17 score [4]: 3.331 | Effect, change in HAMD-28 score [4]: 2.054 | Effect, change in HAMD-17 score [5]: −1.248 | Effect, change in HAMD-28 score [5]: −1.018 | Effect, change in HAMD-17 score (Pooled phases, BMI < 30 kg/m^2 and HNE-His < median (19, 9)): 4.738 | Effect, change in HAMD-28 score (Pooled phases, BMI < 30 kg/m^2 and HNE-His < median): 4.253 | Effect, change in HAMD-17 score (Pooled phases, BMI < 30 kg/m^2 and SAM/SAH >= median (16,8)): 2.583 | Effect, change in HAMD-28 score (Pooled phases, BMI < 30 kg/m^2 and SAM/SAH >= median): 2.906 | Effect, change in HAMD-28 score (Pooled phases, BMI >= 30 kg/m^2 (40,21)): −4.660 | Effect, change in HAMD-17 score (Pooled phases, BMI >= 30 kg/m^2 and HNE-His >= median (23, 11)): −5.420 | Effect, change in HAMD-17 score (Pooled phases, BMI >= 30 kg/m^2 and SAM/SAH < median (21,9)): −7.302 | Effect, change in HAMD-28 score (Pooled phases, BMI >= 30 kg/m^2 and SAM/SAH < median = 2.71 (plasma sample)): −7.572 | Effect, change in HAMD-17 score (Pooled phases, MTHFR 677 CC and BMI < 30 kg/m^2 (17,8)): 1.356 | Effect, change in HAMD-28 score (Pooled phases, MTHFR 677 CC and BMI < 30 kg/m^2): −0.234 | Effect, change in HAMD-17 score (Pooled phases, MTHFR 677 CC and HNE-His < median (20,11)): −1.050 | Effect, change in HAMD-28 score (Pooled phases, MTHFR 677 CC and HNE-His < median = 3.28 (plasma sample)): −1.340
